Source: patent US10597367B2, “Metabotropic glutamate receptor negative allosteric modulators (NAMs) and uses thereof” (Sanford Burnham Prebys Medical Discovery Institute, priority 2014, dated 2020)

Experiments:
[1] = Microsomal stability in vitro assay; assay type: in vitro ADME; details: pooled rat liver microsomes, 4 μM compound, NADPH
Method: Pooled rat liver microsomes (BD Biosciences, #452701) were preincubated with test compounds at 37.5° C. for 5 min in the absence of NADPH. The reaction was initiated by addition of NADPH and incubated under the same conditions. The final incubation concentrations were 4 μM test compound, 2 mM NADPH, and 1 mg/mL (total protein) liver microsomes in phosphate-buffered saline (PBS) at pH 7.4. One aliquot (100 μL) of the incubation mixture was withdrawn at 15 min time points and combined immediately with 100 μL of ACN/MeOH. After mixing, the sample was centrifuged at approximately 13000 rpm for 12 min. The supernatant was filtered and transferred into an autosampler vial and the amount of test compound was quantified using a Shimadzu LCMS 2010EV mass spectrometer. The change of the AUC (area under the curve) of the parent compound as a function of time was used as a measure of microsomal stability. Test compounds were run in duplicate with a positive control.

[2] = Plasma stability in vitro assay; assay type: in vitro ADME; details: heparinized rat plasma, 100 μM, 37.5° C.
Method: A 20 μL aliquot of a 10 mM solution in DMSO of the test compound was added to 2.0 mL of heparinized rat plasma (Lampire, P1-150N) to obtain a 100 μM final solution. The mixture was incubated for 1 h at 37.5° C. Aliquots of 100 μL were taken at 15 min intervals and diluted with 100 μL of MeOH/ACN. After mixing, the sample was centrifuged at approximately 13000 rpm for 12 min. The supernatant was filtered and transferred into an autosampler vial and the amount of test compound was quantified using the Shimadzu LCMS-2010EV system. The change of the AUC of the parent compound in function of time was used as a measure of plasma stability.

Male Wistar rats = experiment: Forced Swim Test (FST); assay type: in vivo; details: rat, FIG. 1
Method: Male Wistar rats (Charles River, Hollister, Calif.), weighing 175-225 g (Charles River, Portage, Ind.) used for the forced swim test study were housed in pairs with food and water available ad libitum, except during testing, in a temperature and humidity controlled vivarium (21° C.). Rats were maintained on a 12-hour reverse light-dark cycle with lights on at 6 pm. All experimental procedures occurred during the dark cycle, were approved by the Institutional Animal Care and Use Committee of the Scripps Research Institute, and were in accordance with the Association for the Assessment and Accreditation of Laboratory Animal Care (AAALAC) guidelines. […]
After the habituation swim and 24 hours prior to the test swim, rats were administered one of three doses of a mGlu2/3 NAM, with doses and pretreatment time based on maximal brain penetration as determined by PK studies for each compound. Blood and brain tissue were collected immediately after the FST and the PK properties of each compound were analyzed together with FST behavior. […] Twenty-four hours after their first exposure, the animals were again placed in the swim apparatus for 5 min, and behaviors were monitored from above by video camera for subsequent analysis. The rater of the behavioral patterns was blind with respect to the experimental conditions being scored. […]

mGlu2 receptor = mGlu2 receptor (Rattus norvegicus (Rat), UniProt P31421); experiment: mGlu2 in vitro GIRK thallium flux assay; assay type: cell-based; details: read-out: mGlu2 EC50 (μM) (60 min); NAM; test compound incubated 60 min before EC80 glutamate; HEK-293 GIRK cells
Method: All cell culture reagents were purchased from Invitrogen Corp. (Carlsbad, Calif.) unless otherwise noted. Compound activity at the group II (mGlu2 and mGlu3) mGlus was assessed using thallium flux through GIRK channels. Briefly, cells were plated into 384-well, black-walled, clear-bottomed poly-D-lysine-coated plates at a density of 15,000 cells/20 μL/well in DMEM containing 10% dialyzed FBS, 20 mM HEPES, and 100 units/mL penicillin/streptomycin (assay media). Plated cells were incubated overnight at 37° C. in the presence of 5% CO2. […] Cells were incubated for 1 h at room temperature, and the dye exchanged to assay buffer using an ELX405, leaving 20 μL/well. Test compounds were diluted to 2 times their final desired concentration in assay buffer (0.3% DMSO final concentration). […] Cell plates and compound plates were loaded onto a kinetic imaging plate reader (FDSS 6000 or 7000; Hamamatsu Corporation, Bridgewater, N.J.). Appropriate baseline readings were taken (10 images at 1 Hz; excitation, 470±20 nm; emission, 540±30 nm) and test compounds were added in a 20 μL volume and incubated for either 2.5 min or 60 min as indicated before the addition of 10 μL of thallium buffer with or without agonist. After the addition of agonist, data were collected for approximately an additional 2.5 min. Data were analyzed using Excel (Microsoft Corp, Redmond, Wash.). The slope of the fluorescence increase beginning 5 s after thallium/agonist addition and ending 15 s after thallium/agonist addition was calculated, corrected to vehicle and maximal agonist control slope values, and plotted in using either XLfit (ID Business Solutions Ltd) or Prism software (GraphPad Software, San Diego, Calif.) to generate concentration-response curves. Potencies were calculated from fits using a four-point parameter logistic equation. For concentration-response curve experiments, compounds were serially diluted 1:3 into 10 point concentration response curves and were transferred to daughter plates using an Echo acoustic plate reformatter (Labcyte, Sunnyvale, Calif.). Test compounds were applied and followed by EC80 concentrations of glutamate.

Sequence of mGlu2 receptor (P31421 19-872): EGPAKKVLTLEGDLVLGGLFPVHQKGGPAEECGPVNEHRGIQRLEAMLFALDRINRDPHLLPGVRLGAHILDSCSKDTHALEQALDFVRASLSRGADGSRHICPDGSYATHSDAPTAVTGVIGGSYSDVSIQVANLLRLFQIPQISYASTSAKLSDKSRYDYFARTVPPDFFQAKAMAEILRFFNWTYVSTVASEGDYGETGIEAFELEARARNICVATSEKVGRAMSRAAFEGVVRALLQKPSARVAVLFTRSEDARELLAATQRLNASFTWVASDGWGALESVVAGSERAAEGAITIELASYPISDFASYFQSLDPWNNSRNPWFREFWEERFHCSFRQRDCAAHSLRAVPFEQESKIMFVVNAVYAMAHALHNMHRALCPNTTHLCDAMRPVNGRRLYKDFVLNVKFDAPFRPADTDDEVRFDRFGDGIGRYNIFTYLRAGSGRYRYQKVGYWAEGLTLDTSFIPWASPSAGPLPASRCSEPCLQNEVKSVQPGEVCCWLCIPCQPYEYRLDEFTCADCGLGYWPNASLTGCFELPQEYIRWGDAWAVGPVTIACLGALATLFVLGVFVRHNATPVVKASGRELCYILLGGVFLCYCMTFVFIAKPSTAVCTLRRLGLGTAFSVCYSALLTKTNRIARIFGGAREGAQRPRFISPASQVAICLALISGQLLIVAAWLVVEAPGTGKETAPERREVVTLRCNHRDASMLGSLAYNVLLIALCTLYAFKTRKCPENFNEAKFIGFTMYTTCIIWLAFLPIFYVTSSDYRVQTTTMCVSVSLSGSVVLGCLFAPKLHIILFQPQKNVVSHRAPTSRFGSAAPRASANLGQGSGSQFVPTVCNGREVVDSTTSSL

Row | SMILES | Microsomal Stability, Percent Remaining @ 1 hour [1] | Plasma Stability, Percent Remaining @ 1 hour [2] | antidepressant activity in the Forced Swim Test (immobility, swimming) (Male Wistar rats) | EC50 (mGlu2 receptor)
1 | O=C1CC(c2ccnc(Br)c2)=Nc2ccc(C(F)(F)F)cc2N1 [Example 191, 4-(2-Bromopyridin-4-yl)-8-(trifluoromethyl)-1,3-dihydro-2H-benzo[b][1,4]diazepin-2-one] |  |  | antidepressant activity by decreasing immobility and increasing swimming | 
2 | O=C(O)c1cc(F)cc(-c2cccc(-c3csc(-c4ccccc4)n3)c2)c1 [Example 9, 5-Fluoro-3′-(2-phenylthiazol-4-yl)biphenyl-3-carboxylic Acid] | 4% | 98% |  | 
3 | Cc1cc2c(cc1C(F)(F)F)NC(=O)CC(c1cccc(S(=O)(=O)c3ncccn3)c1)=N2 [Example 137, 7-Methyl-4-(3-(pyrimidin-2-ylsulfonyl)phenyl)-8-(trifluoromethyl)-1H-benzo[b][1,4]diazepin-2(3H)-one] | 68% | 66% |  | 
4 | Cc1cc2c(cc1C(F)(F)F)NC(=O)CC(c1cccc(Oc3cccc(C(F)(F)F)c3)c1)N2 (single isomer, unassigned) [Example 172B, 7-Methyl-8-(trifluoromethyl)-4-(3-(3-(trifluoromethyl)phenoxy)phenyl)-4,5-dihydro-1H-benzo[b][1,4]diazepin-2(3H)-one] |  |  |  | > 10 µM
5 | N#Cc1cc(C2=Nc3ccc(C(F)(F)F)cc3NC(=O)C2)ccn1 [Example 184, 4-(2-Oxo-8-(trifluoromethyl)-2,3-dihydro-1H-benzo[b][1,4]diazepin-4-yl)picolinonitrile] | 97% | 100% |  | 
6 | O=C(O)c1cc(-c2cccc(-c3csc(-c4ccccc4)n3)c2)ccc1F [Example 1, 4-Fluoro-3′-(2-phenylthiazol-4-yl)biphenyl-3-carboxylic Acid] | 3% | 93% |  | 
7 | O=C(O)c1cc(-c2cccc(-c3nsc(-c4ccccc4)n3)c2)ccc1F [Example 38, 4-Fluoro-3′-(5-phenyl-1,2,4-thiadiazol-3-yl)biphenyl-3-carboxylic Acid] | 2% | 65% |  | 
8 | Cc1cc2c(cc1C(F)(F)F)NC(=O)CC(c1cccc(Oc3cccc(Br)c3)c1)N2 (single isomer, unassigned) [Example 173B, 4-(3-(3-Bromophenoxy)phenyl)-7-methyl-8-(trifluoromethyl)-4,5-dihydro-1H-benzo[b][1,4]diazepin-2(3H)-one] |  |  |  | > 10 µM
9 | O=C1CC(c2cccc(-c3cccnc3)c2)=Nc2ccc(Br)cc2N1 [Example 179, 8-Bromo-4-(3-(pyridin-3-yl)phenyl)-1,3-dihydro-2H-benzo[b][1,4]diazepin-2-one] | 30% | 100% |  | 
10 | Cc1cc2c(cc1C(F)(F)F)NC(=O)CC(c1cccc(Sc3ncccn3)c1)=N2 [Example 136, 7-Methyl-4-(3-(pyrimidin-2-ylthio)phenyl)-8-(trifluoromethyl)-1H-benzo[b][1,4]diazepin-2(3H)-one] | 90% | 99% |  | 

Second part, led by results:

Row | Microsomal Stability, Percent Remaining @ 1 hour [1] | Plasma Stability, Percent Remaining @ 1 hour [2] | SMILES | antidepressant activity in the Forced Swim Test (immobility, swimming) (Male Wistar rats) | EC50 (mGlu2 receptor)
11 | 100% | 100% | O=C(O)c1cc(-c2cccc(-c3nc(-c4ccccc4)cc(C(F)(F)F)n3)c2)ccc1F [Example 86, 4-Fluoro-3′-(4-phenyl-6-(trifluoromethyl)pyrimidin-2-yl)biphenyl-3-carboxylic Acid] |  | 
12 | 82% | 100% | O=C(O)c1cc(F)cc(-c2cccc(-c3nc(-c4ccco4)cc(C(F)(F)F)n3)c2)c1 [Example 89, 5-Fluoro-3′-(4-(furan-2-yl)-6-(trifluoromethyl)pyrimidin-2-yl)biphenyl-3-carboxylic Acid] |  | 
13 | 66% | 95% | O=C(O)c1cc(F)cc(-c2cccc(-c3nsc(-c4ccoc4)n3)c2)c1 [Example 43, 5-Fluoro-3′-(5-(furan-3-yl)-1,2,4-thiadiazol-3-yl)biphenyl-3-carboxylic Acid] |  | 
14 | 83% | 83% | O=C(O)c1cc(-c2cccc(-c3nc(-c4ccsc4)cc(C(F)(F)F)n3)c2)ccc1F [Example 122, 4-Fluoro-3′-(4-(thiophen-3-yl)-6-(trifluoromethyl)pyrimidin-2-yl)-[1,1′-biphenyl]-3-carboxylic Acid] |  | 
15 | 95% | 100% | O=C(O)c1cc(F)cc(-c2cccc(-c3nc(-c4ccc(C(F)(F)F)nc4)cc(C(F)(F)F)n3)c2)c1 [Example 76, 5-Fluoro-3′-(4-(trifluoromethyl)-6-(6-(trifluoromethyl)pyridin-3-yl)pyrimidin-2-yl)biphenyl-3-carboxylic Acid] |  | 
16 | 66% | 93% | O=C(O)c1ccc(F)c(-c2cccc(-c3nc(-c4ccoc4)cc(C(F)(F)F)n3)c2)c1 [Example 114, 6-Fluoro-3′-(4-(furan-3-yl)-6-(trifluoromethyl)pyrimidin-2-yl)biphenyl-3-carboxylic Acid] |  | 
17 | 92% | 97% | COc1ccc(-c2cc(C(F)(F)F)nc(-c3cccc(-c4ccc(F)c(C(=O)O)c4)c3)n2)cc1 [Example 87, 4-Fluoro-3′-(4-(4-methoxyphenyl)-6-(trifluoromethyl)pyrimidin-2-yl)biphenyl-3-carboxylic Acid] |  | 
18 | 82% | 86% | O=C(O)c1ccc(F)c(-c2cccc(-c3nc(-c4ccc(C(F)(F)F)nc4)cc(C(F)(F)F)n3)c2)c1 [Example 79, 6-Fluoro-3′-(4-(trifluoromethyl)-6-(6-(trifluoromethyl)pyridin-3-yl)pyrimidin-2-yl)biphenyl-3-carboxylic Acid] |  | 
